The source of these data is patent US7115666B2, “Nitrone compounds, pharmaceutical compositions containing the same and methods for treating inflammation and neuropathic pain” (Renovis, Inc., priority 2002, dated 2006).

“Also recorded” adds a separate entry of the source.

Data set [1] deals with chronic constriction injury (CCI) rat model of peripheral neuropathy. The data set can be described thus: Cold allodynia assay in chronic constriction injury (CCI) rats. It counts as in vivo. As to the method:
The purpose of the following studies was to determine whether test compounds had analgesic activity in a chronic constriction injury (CCI) rat model of peripheral neuropathy. Neuropathic rats were treated with PBN, and other test compounds or 2.5% DMSO in 1.0% MC as a vehicle and tested in a cold allodynia assay to evaluate nociceptive responses.
One week prior to the cold allodynia assay, CCI rats were prepared as follows. Male Sprague Dawley rats (158–224 g) had their right sciatic nerve loosely ligated under aseptic conditions. To observe the cold allodynia response, their paw withdrawal latency response was determined by placing rats in a cold water bath (2–4° C., 2.5 cm deep). […] Rats rendered neuropathic in the right limb display an exaggerated withdrawal response on the neuropathic side (right rear limb). For the cold allodynia assay, two pre-dose latency times to cold were recorded. The end point was an exaggerated removal of the paw from the water. […] The remaining rats were divided into treatment groups. Two separate latency times were obtained for each rat before the dose of each drug. In the first study shown in FIG. 1, rats were then dosed with Compound 1 (30 mg/kg, po) or PBN (100 mg/kg, po) as a suspension in Veh, or Veh alone (1 ml/kg, po). In the second study shown as FIG. 2, three different doses of Compound 1 (10, 30, 100 mg/kg, po) were administered to CCI rats. In both studies, latency to withdraw the ligated leg up above water level was recorded using an electronic timer. The tester was blinded to the animal's treatment group at the time of testing.
Maximum time of latency in any trial was 20 sec. Statistical significance was assessed for paired groups (pre-dose vs. post-dose) using a Wilcoxon test and between non-paired groups using a Kruskal-Wallis with a Dunn's test post-hoc. A probability value of p<0.05 was identified as statistically significant.

The subject of data set [2] is collagen footpad edema in rats. The data set can be described thus: Collagen arthritis assay. The data set is classed as in vivo, rat. Particulars: for paw volume differences after treatment: FIG. 3; for activity in rat collagen model: dose not stated (Assay Results summary). As to the method:
This assay is commonly used to screen and evaluate anti-inflammatory drug candidates. See, for example, Larsson et al., Arthritis & Rheumatism, 33:693–701, 1990 and references cited therein.
For these experiments, Female DA rats (7–8 weeks of age) were immunized with Type II collagen derived from bovine nasal septum as described in Cremer et al., J. of Immunology, 149:1045–1053, 1992. The collagen was dissolved and administered with incomplete Freund's adjuvant. Standard precautions were taken to avoid denaturing the collagen before its administration such as keeping the solution cold during preparation. Rats were immunized in the base of the tail on day 0. Dosing began on day 10 with rat paws weighed and volumes taken on day 21. The arthritis was evaluated by comparing paw weights and/or paw volumes at day 21. Compounds reducing paw weight or paw volumes by at least about 30% compared to the controls were also considered effective in this assay.

Data set [3] deals with Taxol-induced neuropathic pain model in mice. The data set can be described thus: Taxol-induced neuropathic pain model, mechanical allodynia (von Frey filament). The data set is classed as in vivo. An excerpt: Taxol is a chemotherapeutic reagent for treatment of cancer patients. Cancer patients under Taxol chemotherapy can develop neuropathic pain, with a symptom of severe mechanical allodynia, so that a light touch (non-noxious stimulus in a normal condition) becomes painful. […] Recent studies have shown that Taxol is involved in TNF-alpha release in microglia cells. As one of the clinically relevant models, Taxol-induced neuropathic pain was developed in mice and rats. It is believed that small-diameter high threshold nociceptive C-fibers in the peripheral sensory nervous systems are largely, if not exclusively, affected in the Taxol-induced neuropathic pain models.
In this series of experiments, five-week old, male C57B1/6 mice were purchased from Charles River and housed at the Renovis animal facility in South San Francisco. Mice were trained for one week in an enclosure made of Plexiglas with dimensions of 2 in×2.5 in×3.5 in (W, H, and L) with a meshed metal support. The baseline of response to mechanical stimulus was measured using a von Frey Filament (0.6 g=3.84 mN). Normally, the baseline response is between 0 to 40%.
Taxol was dissolved (1 mg/ml) in 50% Cremophor EL and 50% alcohol, and freshly diluted with saline to the final concentration of 0.2 mg/ml in 10% Cremophor EL, 10% alcohol. Mice were administered Taxol at 1 mg/kg of body weight, via i.p. daily, while the animals of the control group received vehicle (10% Cremophor EL and 10% alcohol in saline).
Animals receiving this daily dose of Taxol will develop neuropathic pain. The mechanical allodynia was measured at day 7, 8, or 14 after Taxol administration.
A quantity of 200 mg of compound 14 (Example 14) was dissolved in 0.4 ml of 100% DMSO to yield a concentration of 500 mg/ml, and was kept at 4° C. until use. Methylcellulose was dissolved in deionized-distilled water to yield a concentration of 1%. The freshly prepared meythlcellulose was used to make a suspension of the compound, 10 mg of compound in 2.5% DMSO (V/V) and 1% methylcellulose. The suspension was sonicated for 6 min with a 5 second interval every 30 seconds before administration to animals.
A quantity of 50 mg/kg (body weight) compound or vehicle (2.5% DMSO and 1% methylcellulose), 100 μl/20 g (body weight) was given to animals via gavage feeding procedure in a randomized, blinded fashion. The animals were then placed in the enclosure for assay. Mechanical allodynia was measured with von Frey filament (0.6 g=[…]) at various times after administration.
Referring to FIG. 5, baseline in the group of animals was measured as 25+/−4% (n=24, ±SEM) before induction of neuropathic pain with Taxol (or sham treatment), where the response was measured with a von Frey filament (0.6 g=3.84 mN) as the percent of trials a withdrawal response is observed after probing with the filament. The higher the percentage, the greater the inferred pain.
Sixteen animals were treated with Taxol daily to induce neuropathic pain. Mechanical allodynia was assayed at day 8; average withdrawal response was measured as 81±5% (n=16, ±SEM). Sixteen animals were treated with matching vehicle to create sham animals. The Taxol and sham animals were then separated randomly into two groups of 8 animals each for drug vs. vehicle testing. Withdrawal responses to a von Frey filament probe were measured at 1, 6, 24, and 72 hours post-administration of drug or vehicle control, and averaged for each animal. […] Negative values reflect a reduction in inferred pain.
For mouse neuropathic pain studies, C57B1/6 strain, five-weeks old male mice were obtained from Charles River, San Diego, Calif. A total of 120 mice were used for the studies. 4 mice per cage were housed under standard conditions with 12-hour light and 12-hour dark cycles (in Renovis, Inc, South San Francisco facility). For rat neuropathic pain studies, male Sprague-Dawley rats, with body weights ranging from 180–200 grams, were obtained from Harlan. A total of 42 rats were used for this study. […]

Data set [4] has as its system adjuvant-induced footpad edema in rats. The data set can be described thus: Adjuvant assay (adjuvant-induced footpad edema). It counts as in vivo, rat. As to the method:
This assay is a model for chronic inflammation. See, for example, B. M. Weichman, “Rat Adjuvant Arthritis: A Model of Chronic Inflammation,” Pharmacological Methods in the Control of Inflammation, 363–380 (1989) and references cited therein.
In this assay, Male Lewis rats weighing between 180–220 g were lightly anesthetized with an ip injection of 30 mg/kg of sodium pentobarbital (50 mg/ml). Desiccated Mycobacterium butyrium (Difco, 20 mg/ml) suspended in mineral oil was injected (50 μL) at both sides of the base of the tail under the skin. A line was tattooed on both rear paws at 5 mm above the angle of the ankle. The paw volumes, under the line, were measured by volume displacement using a plethysmometer (Ugo Basile) at the day of adjuvant injection (day 0) and on day 14. On day 14, animals with paw volumes equal to the mean of paw volumes ±SD were randomized into treatment groups. Rats which fell outside ±1 SD were not used in the experiment. One group received vehicle (1% methyl cellulose) by the po route and the other group received indomethacin (3 mg/kg suspended in 1% methyl cellulose). Dosing began on day 14, and continued until final assessment on day 21 post-adjuvant injection. […] This group has a slightly positive volume increase when paw volumes on day 21 are subtracted from day 0 values due to growth of the rat. […]

Where [5] appears, read: FIG. 2, 30 mg/kg, p.o., 90 min post-dose.
[6] abbreviates: FIG. 2, 100 mg/kg, p.o., 90 min post-dose.
Where [7] appears, read: Taxol/mice, P.O., Single dosing, 50 Mg/Kg body weight.
Setting [8] is: dose not stated (Assay Results summary).

In the case of `CC(C)(C)[N+]([O-])=CCCc1ccccc1` [Compound 1, N-tert-butyl-C-(2-phenylethyl)nitrone], in data set [1] (10 mg/kg, po), the “activity in a model of painful peripheral neuropathy” value was “significantly active”. Besides, the “post-dose latency score vs. vehicle” value is reported as “signficant post-dose latency score over vehicle” in data set [1] (FIG. 1, 30 mg/kg, p.o., 90 min post-dose, Kruskal-Wallis, Dunn's test); “significant post-dose latency score over vehicle” in data set [1] (setting [5]); “significant post-dose latency score over vehicle” in data set [1] (setting [6]). Further, the “latency to cold stimulus, post-dose vs. pre-dose score” value in data set [1] (FIG. 1, 30 mg/kg, p.o., 90 min post-dose, Wilcoxon test) is reported as “Significantly higher latency scores”. Moreover, the “latency time, post-dose vs. pre-dose score” value in data set [1] (FIG. 2, 10 mg/kg, p.o., 90 min post-dose) is on record as “significantly increased latency time”; in data set [1] (setting [5]) it was “significantly increased latency time”; in data set [1] (setting [6]), “significantly increased latency time”. In addition, the “paw volume differences after treatment” value in data set [2] (dose not stated) is given as “unexpected activity”. Besides, the “total gait scores as an index of pain” value in data set [2] (FIG. 4, lowering indicates relief from pain) is listed as “significant activity; also recorded: activity as an analgesic”. Further, the “activity in rat collagen model” value in data set [2] was “significantly active”. In addition, the “time postdosing of analgesic effect” value in data set [3] (50 mg/kg single dose via oral gavage) worked out at 1 h. For the same compound, the “effect on mechanical allodynia (Taxol-induced pain)” value in data set [3] (50 mg/kg single dose via oral gavage, von Frey filament 0.6 g, measured 1, 6, 24, up to 48 or 72 hours postdosing) was “analgesic effect”. In data set [3] (setting [7]), the “Effective time Hour post dosing” value is approximately 1 h. Besides, the “extent of block of mechanical allodynia” value in data set [3] (setting [7]) is listed as “partial”.

In the case of `COc1ccc(CCC=[N+]([O-])C(C)(C)C)cc1` [Compound 4, N-tert-butyl-C-[2-(4-methoxyphenyl)ethyl]nitrone], the “Effective time Hour post dosing” value in data set [3] (setting [7]) is “None via p.o”.

Take `CC(C)Oc1ccc(CCC=[N+]([O-])C(C)(C)C)cc1` [Compound 6, N-tert-butyl-C-[2-(4-isopropoxyphenyl)ethyl]nitrone]: the “Effective time Hour post dosing” value in data set [3] (setting [7]) was “None via p.o”.

`CCOc1ccc(CCC=[N+]([O-])C(C)(C)C)cc1` [Compound 7, N-tert-butyl-C-[2-(4-ethoxyphenyl)ethyl]nitrone] yielded a melting point of 54 to 57 °C. In addition, in data set [3] (setting [7]), the “Effective time Hour post dosing” value is recorded as “None via p.o”.

Take `CC(C)(C)[N+]([O-])=CCCc1ccc(NS(=O)(=O)c2ccccc2)cc1` [Compound 10, N-tert-butyl-C-[2-(4-benzenesulfonamidophenyl)ethyl]nitrone]: the melting point was determined as 160 °C.

For `CCC(C=[N+]([O-])C(C)(C)C)c1ccc(C(C)(C)C)cc1` (stereo not drawn) [Compound 15, N-tert-butyl-C-[1-(4-tert-butylphenyl)propyl]nitrone], the “Effective time Hour post dosing” value in data set [3] (setting [7]) is “None via p.o”.

Turning to `COc1ccc(CC(C)C=[N+]([O-])C(C)(C)C)cc1` (stereo not drawn) [Compound 16, N-tert-butyl-C-[1–2-(4-methoxyphenyl)methylethyl]nitrone], the “Effective time Hour post dosing” value in data set [3] (setting [7]) was “None via p.o”.

Take `[O-][N+](=CCCc1ccccc1)C1CCCCC1` [Compound 18, N-Cyclohexyl-C-(2-phenylethyl)nitrone]: the melting point stood at 97.2 °C.

`CC(C)(C)c1cc(CCC=[N+]([O-])C(C)(C)C)cc(C(C)(C)C)c1O` [Compound 21]: the “Effective time Hour post dosing” value in data set [3] (setting [7]) is “None via p.o”.

Consider `COc1ccc2c(c1)c(CC(=O)O)c(C)n2C(=O)c1ccc(Cl)cc1` [Indomethacin], for which, in data set [4] (3 mg/kg, po, dosing day 14 to day 21 post-adjuvant), the “paw volume as compared to vehicle controls” value was “significantly reduced paw volume”.

Regarding `CC(C)(C)[N+]([O-])=Cc1ccccc1` [PBN, N-tert-butyl phenyl nitrone, reference compound], the “activity in cold allodynia assay” value in data set [1] (FIG. 1, 100 mg/kg, p.o., 90 min post-dose) is “completely inactive”. Besides, in data set [1] (setting [8]), the “activity in the analgesic assay” value is “completely inactive”. For the same compound, the “activity in the adjuvant assay” value in data set [4] (setting [8]) is “completely inactive”. Besides, the “paw volume differences after treatment” value in data set [2] (100 mg/kg) is “inactive”. Also, the “activity in rat collagen model” value in data set [2] is “completely inactive”.
